pIC50: −log10 of the molar value.
Tested on: 772245-204-R-J1-PDC complex spheroid growth
Test: Anticancer human tumor 772245-204-R-J1-PDC patient-derived rhabdomyosarcoma cell line growth inhibition [Asc]
Conditions: for pIC50: curve of first compound; for viability, T/C: stronger effect = lower value
Summary of the method: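 Spheroid model: tumor line + HUVEC + hMSC. Single agents and combinations; top conc. at/near clinical Cmax (10 microM if undetermined), half-log dilutions. DMSO stocks at 800-fold test concentration.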
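Further: compound exposure lasted seven days.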
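Wherever viability, T/C is given: 100% = DMSO vehicle control viability.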

SMILES: NC(=O)C(=Cn1cnc(-c2cc(C(F)(F)F)cc(C(F)(F)F)c2)n1)c1cncnc1 + Cc1c(S(C)(=O)=O)c(-c2cc(F)cc(N3CCN(c4ccc(NS(=O)(=O)c5ccc(NC(CCN6CCC(C(=O)OCCCP(=O)(O)O)CC6)CSc6ccccc6)c(S(=O)(=O)C(F)(F)F)c5)cc4)CC3)c2)c(-c2ccc(Cl)cc2)n1C(C)C
- pIC50 (second compound 0.1 µM): 7.66
- pIC50 (second compound 0.316 µM): 8.18
- pIC50 (second compound 1 µM): > 9.02
- pIC50 (second compound 3.16 µM): > 9.02
- pIC50 (second compound 10 µM): > 9.02
- viability, T/C (second compound 0.1 µM, first compound 0.000949 µM): 80.2%
- viability, T/C (second compound 0.1 µM, first compound 0.003 µM): 72.2%
- viability, T/C (second compound 0.1 µM, first compound 0.00949 µM): 64%
- viability, T/C (second compound 0.1 µM, first compound 0.03 µM): 43.2%
- viability, T/C (second compound 0.1 µM, first compound 0.0949 µM): 29.6%
- viability, T/C (second compound 0.1 µM, first compound 0.3 µM): 12.6%
- viability, T/C (second compound 0.316 µM, first compound 0.000949 µM): 58.1%
- viability, T/C (second compound 0.316 µM, first compound 0.003 µM): 64%
- viability, T/C (second compound 0.316 µM, first compound 0.00949 µM): 42.1%
- viability, T/C (second compound 0.316 µM, first compound 0.03 µM): 29.2%
- viability, T/C (second compound 0.316 µM, first compound 0.0949 µM): 10.3%
- viability, T/C (second compound 0.316 µM, first compound 0.3 µM): 3.73%
- viability, T/C (second compound 1 µM, first compound 0.000949 µM): 41.2%
- viability, T/C (second compound 1 µM, first compound 0.003 µM): 34.8%
- viability, T/C (second compound 1 µM, first compound 0.00949 µM): 24%
- viability, T/C (second compound 1 µM, first compound 0.03 µM): 8.43%
- viability, T/C (second compound 1 µM, first compound 0.0949 µM): 4.25%
- viability, T/C (second compound 1 µM, first compound 0.3 µM): 1.91%
- viability, T/C (second compound 3.16 µM, first compound 0.000949 µM): 42.5%
- viability, T/C (second compound 3.16 µM, first compound 0.003 µM): 27.8%
- viability, T/C (second compound 3.16 µM, first compound 0.00949 µM): 23.9%
- viability, T/C (second compound 3.16 µM, first compound 0.03 µM): 2.44%
- viability, T/C (second compound 3.16 µM, first compound 0.0949 µM): 0.58%
- viability, T/C (second compound 3.16 µM, first compound 0.3 µM): 0.81%
- viability, T/C (second compound 10 µM, first compound 0.000949 µM): 32.9%
- viability, T/C (second compound 10 µM, first compound 0.003 µM): 39.9%
- viability, T/C (second compound 10 µM, first compound 0.00949 µM): 22.2%
- viability, T/C (second compound 10 µM, first compound 0.03 µM): 5.99%
- viability, T/C (second compound 10 µM, first compound 0.0949 µM): 0.9%
- viability, T/C (second compound 10 µM, first compound 0.3 µM): 0.59%

SMILES: NC1CCC(NC2CC2c2ccccc2)CC1 (stereo not given) + Cc1c(S(C)(=O)=O)c(-c2cc(F)cc(N3CCN(c4ccc(NS(=O)(=O)c5ccc(NC(CCN6CCC(C(=O)OCCCP(=O)(O)O)CC6)CSc6ccccc6)c(S(=O)(=O)C(F)(F)F)c5)cc4)CC3)c2)c(-c2ccc(Cl)cc2)n1C(C)C
- pIC50 (second compound 0.1 µM): < 7.00
- pIC50 (second compound 0.316 µM): > 9.50
- pIC50 (second compound 1 µM): > 9.50
- pIC50 (second compound 3.16 µM): > 9.50
- pIC50 (second compound 10 µM): > 9.50
- viability, T/C (second compound 0.1 µM, first compound 0.000316 µM): 69.1%
- viability, T/C (second compound 0.1 µM, first compound 0.001 µM): 67.9%
- viability, T/C (second compound 0.1 µM, first compound 0.00316 µM): 66%
- viability, T/C (second compound 0.1 µM, first compound 0.01 µM): 59.6%
- viability, T/C (second compound 0.1 µM, first compound 0.0316 µM): 66.6%
- viability, T/C (second compound 0.1 µM, first compound 0.1 µM): 61.2%
- viability, T/C (second compound 0.316 µM, first compound 0.000316 µM): 42.7%
- viability, T/C (second compound 0.316 µM, first compound 0.001 µM): 48.9%
- viability, T/C (second compound 0.316 µM, first compound 0.00316 µM): 41.6%
- viability, T/C (second compound 0.316 µM, first compound 0.01 µM): 38.2%
- viability, T/C (second compound 0.316 µM, first compound 0.0316 µM): 38.1%
- viability, T/C (second compound 0.316 µM, first compound 0.1 µM): 45.2%
- viability, T/C (second compound 1 µM, first compound 0.000316 µM): 34.1%
- viability, T/C (second compound 1 µM, first compound 0.001 µM): 24.2%
- viability, T/C (second compound 1 µM, first compound 0.00316 µM): 22.6%
- viability, T/C (second compound 1 µM, first compound 0.01 µM): 24.2%
- viability, T/C (second compound 1 µM, first compound 0.0316 µM): 26.3%
- viability, T/C (second compound 1 µM, first compound 0.1 µM): 24.8%
- viability, T/C (second compound 3.16 µM, first compound 0.000316 µM): 24.2%
- viability, T/C (second compound 3.16 µM, first compound 0.001 µM): 18.1%
- viability, T/C (second compound 3.16 µM, first compound 0.00316 µM): 17.8%
- viability, T/C (second compound 3.16 µM, first compound 0.01 µM): 18.7%
- viability, T/C (second compound 3.16 µM, first compound 0.0316 µM): 13.7%
- viability, T/C (second compound 3.16 µM, first compound 0.1 µM): 13.2%
- viability, T/C (second compound 10 µM, first compound 0.000316 µM): 20.4%
- viability, T/C (second compound 10 µM, first compound 0.001 µM): 18.1%
- viability, T/C (second compound 10 µM, first compound 0.00316 µM): 15.8%
- viability, T/C (second compound 10 µM, first compound 0.01 µM): 18.4%
- viability, T/C (second compound 10 µM, first compound 0.0316 µM): 16.8%
- viability, T/C (second compound 10 µM, first compound 0.1 µM): 13.2%

Reference: PubChem BioAssay AID1963433 (Molecular Pharmacology Branch, DTP, NCI, 2024)
